Results from the NIST ThermoML archive (doi:10.1021/je060271a).
Where “and” joins values, the source holds several entries; their conditions need not be identical. Equal entries are not always repeated. Numbers after ± are expanded uncertainties.

Conditions: 343.15 K, Liquid, Vibrating tube method

## CCCCCCC(=O)OCC(COC(=O)CCCCCC)(COC(=O)CCCCCC)COC(=O)CCCCCC [pentaerythritol tetraheptanoate]
143.4 kPa
  mass density: 940.7 ± 1.1 kg/m3
144.1 kPa
  mass density: 940.6 ± 1.1 kg/m3
144.3 kPa
  mass density: 940.8 ± 1.1 kg/m3
144.8 kPa
  mass density: 940.7 ± 1.1 kg/m3 and 940.6 ± 1.1 kg/m3
145 kPa
  mass density: 940.6 ± 1.1 kg/m3 and 940.7 ± 1.1 kg/m3
145.7 kPa
  mass density: 940.7 ± 1.1 kg/m3
145.9 kPa
  mass density: 940.6 ± 1.1 kg/m3
146.2 kPa
  mass density: 940.6 ± 1.1 kg/m3
146.4 kPa
  mass density: 940.7 ± 1.1 kg/m3
146.9 kPa
  mass density: 940.6 ± 1.1 kg/m3
147.3 kPa
  mass density: 940.6 ± 1.1 kg/m3
147.6 kPa
  mass density: 940.7 ± 1.1 kg/m3
148.1 kPa
  mass density: 940.8 ± 1.1 kg/m3
148.5 kPa
  mass density: 940.7 ± 1.1 kg/m3
148.8 kPa
  mass density: 940.6 ± 1.1 kg/m3
149 kPa
  mass density: 940.7 ± 1.1 kg/m3
149.2 kPa
  mass density: 940.7 ± 1.1 kg/m3
149.7 kPa
  mass density: 940.6 ± 1.1 kg/m3
149.9 kPa
  mass density: 940.6 ± 1.1 kg/m3
150 kPa
  mass density: 940.7 ± 1.1 kg/m3
150.2 kPa
  mass density: 940.7 ± 1.1 kg/m3
150.4 kPa
  mass density: 940.8 ± 1.1 kg/m3
151.1 kPa
  mass density: 940.6 ± 1.1 kg/m3
151.3 kPa
  mass density: 940.7 ± 1.1 kg/m3
151.8 kPa
  mass density: 940.7 ± 1.1 kg/m3 and 940.6 ± 1.1 kg/m3
151.9 kPa
  mass density: 940.6 ± 1.1 kg/m3
152.5 kPa
  mass density: 940.7 ± 1.1 kg/m3
153 kPa
  mass density: 940.8 ± 1.1 kg/m3
153.2 kPa
  mass density: 940.8 ± 1.1 kg/m3
153.7 kPa
  mass density: 940.8 ± 1.1 kg/m3
153.9 kPa
  mass density: 940.7 ± 1.1 kg/m3
154.2 kPa
  mass density: 940.7 ± 1.1 kg/m3
154.9 kPa
  mass density: 940.7 ± 1.1 kg/m3
155.1 kPa
  mass density: 940.7 ± 1.1 kg/m3
155.6 kPa
  mass density: 940.7 ± 1.1 kg/m3
155.8 kPa
  mass density: 940.7 ± 1.1 kg/m3
155.9 kPa
  mass density: 940.8 ± 1.1 kg/m3
156.3 kPa
  mass density: 940.7 ± 1.1 kg/m3
156.8 kPa
  mass density: 940.7 ± 1.1 kg/m3
157 kPa
  mass density: 940.7 ± 1.1 kg/m3
157.5 kPa
  mass density: 940.7 ± 1.1 kg/m3
157.9 kPa
  mass density: 940.7 ± 1.1 kg/m3
158.2 kPa
  mass density: 940.7 ± 1.1 kg/m3
159.1 kPa
  mass density: 940.7 ± 1.1 kg/m3
159.2 kPa
  mass density: 940.8 ± 1.1 kg/m3
159.6 kPa
  mass density: 940.7 ± 1.1 kg/m3
159.9 kPa
  mass density: 940.7 ± 1.1 kg/m3
160.6 kPa
  mass density: 940.7 ± 1.1 kg/m3
161.3 kPa
  mass density: 940.7 ± 1.1 kg/m3
161.5 kPa
  mass density: 940.6 ± 1.1 kg/m3
162.2 kPa
  mass density: 940.6 ± 1.1 kg/m3
162.6 kPa
  mass density: 940.6 ± 1.1 kg/m3
163.3 kPa
  mass density: 940.8 ± 1.1 kg/m3
163.4 kPa
  mass density: 940.7 ± 1.1 kg/m3
163.9 kPa
  mass density: 940.7 ± 1.1 kg/m3
164.5 kPa
  mass density: 940.7 ± 1.1 kg/m3
164.8 kPa
  mass density: 940.7 ± 1.1 kg/m3
165.2 kPa
  mass density: 940.7 ± 1.1 kg/m3
165.7 kPa
  mass density: 940.7 ± 1.1 kg/m3
166.2 kPa
  mass density: 940.8 ± 1.1 kg/m3
166.7 kPa
  mass density: 940.6 ± 1.1 kg/m3
167.3 kPa
  mass density: 940.6 ± 1.1 kg/m3
167.9 kPa
  mass density: 940.6 ± 1.1 kg/m3
168.3 kPa
  mass density: 940.8 ± 1.1 kg/m3
168.6 kPa
  mass density: 940.7 ± 1.1 kg/m3
169.2 kPa
  mass density: 940.7 ± 1.1 kg/m3
169.9 kPa
  mass density: 940.6 ± 1.1 kg/m3
170.4 kPa
  mass density: 940.8 ± 1.1 kg/m3
170.9 kPa
  mass density: 940.6 ± 1.1 kg/m3
171.2 kPa
  mass density: 940.7 ± 1.1 kg/m3
171.8 kPa
  mass density: 940.6 ± 1.1 kg/m3
172.3 kPa
  mass density: 940.6 ± 1.1 kg/m3
172.8 kPa
  mass density: 940.7 ± 1.1 kg/m3
173 kPa
  mass density: 940.7 ± 1.1 kg/m3
173.2 kPa
  mass density: 940.7 ± 1.1 kg/m3
173.7 kPa
  mass density: 940.7 ± 1.1 kg/m3
174.4 kPa
  mass density: 940.6 ± 1.1 kg/m3
174.9 kPa
  mass density: 940.7 ± 1.1 kg/m3
175.2 kPa
  mass density: 940.6 ± 1.1 kg/m3
175.9 kPa
  mass density: 940.7 ± 1.1 kg/m3
176.5 kPa
  mass density: 940.8 ± 1.1 kg/m3
177.1 kPa
  mass density: 940.7 ± 1.1 kg/m3
178 kPa
  mass density: 940.7 ± 1.1 kg/m3
178.4 kPa
  mass density: 940.6 ± 1.1 kg/m3
178.9 kPa
  mass density: 940.7 ± 1.1 kg/m3
179.6 kPa
  mass density: 940.7 ± 1.1 kg/m3
180.8 kPa
  mass density: 940.7 ± 1.1 kg/m3
181.5 kPa
  mass density: 940.6 ± 1.1 kg/m3
182.2 kPa
  mass density: 940.7 ± 1.1 kg/m3
182.7 kPa
  mass density: 940.8 ± 1.1 kg/m3
183.2 kPa
  mass density: 940.7 ± 1.1 kg/m3
184.1 kPa
  mass density: 940.6 ± 1.1 kg/m3
184.8 kPa
  mass density: 940.8 ± 1.1 kg/m3
185.3 kPa
  mass density: 940.6 ± 1.1 kg/m3
185.8 kPa
  mass density: 940.8 ± 1.1 kg/m3
186.7 kPa
  mass density: 940.7 ± 1.1 kg/m3
187.1 kPa
  mass density: 940.6 ± 1.1 kg/m3
188.1 kPa
  mass density: 940.7 ± 1.1 kg/m3
188.8 kPa
  mass density: 940.6 ± 1.1 kg/m3
189.3 kPa
  mass density: 940.7 ± 1.1 kg/m3
190 kPa
  mass density: 940.8 ± 1.1 kg/m3
191.1 kPa
  mass density: 940.6 ± 1.1 kg/m3
191.7 kPa
  mass density: 940.6 ± 1.1 kg/m3
192.3 kPa
  mass density: 940.7 ± 1.1 kg/m3
193.1 kPa
  mass density: 940.6 ± 1.1 kg/m3
193.6 kPa
  mass density: 940.6 ± 1.1 kg/m3
194.3 kPa
  mass density: 940.7 ± 1.1 kg/m3
195.4 kPa
  mass density: 940.8 ± 1.1 kg/m3
196.1 kPa
  mass density: 940.8 ± 1.1 kg/m3
197.1 kPa
  mass density: 940.7 ± 1.1 kg/m3
197.7 kPa
  mass density: 940.8 ± 1.1 kg/m3
